{"source": "the supplement of paper PMC10307832", "assay_in_all_cases": "relative viability (nuclei count vs DMSO), 5 days (fraction); higher = more cells survive", "key": {"HOP-62": {"system": "HOP-62", "how_it_was_run": "(§1)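 Medians of duplicate plates are given as relative viability. That measure is the nuclei count in treated wells divided by the count in vehicle wells. Counts were taken on 4× images of lung cancer cell lines in 1536-well plates, 5 days after pin-tool dosing the day after seeding with one drug alone or a fixed anchor-drug dose plus five library-drug doses (not always all listed) in √10 steps.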"}, "NCI-H1792": {"system": "NCI-H1792", "how_it_was_run": "as §1"}, "NCI-H2009": {"system": "NCI-H2009", "how_it_was_run": "as §1"}, "LU99A": {"system": "LU99A", "how_it_was_run": "as §1"}, "NCI-H460": {"system": "NCI-H460", "how_it_was_run": "as §1"}, "LXF-289": {"system": "LXF-289", "how_it_was_run": "as §1"}, "NCI-H1915": {"system": "NCI-H1915", "how_it_was_run": "as §1"}, "SK-LU-1": {"system": "SK-LU-1", "how_it_was_run": "as §1"}, "COR-L 105": {"system": "COR-L 105", "how_it_was_run": "as §1"}, "NCI-H2085": {"system": "NCI-H2085", "how_it_was_run": "as §1"}, "HCC-366": {"system": "HCC-366", "how_it_was_run": "as §1"}, "EPLC-272H": {"system": "EPLC-272H", "how_it_was_run": "as §1"}, "NCI-H1793": {"system": "NCI-H1793", "how_it_was_run": "as §1"}, "UMC-11": {"system": "UMC-11", "how_it_was_run": "as §1"}, "NCI-H1666": {"system": "NCI-H1666", "how_it_was_run": "as §1"}, "LC-2-ad": {"system": "LC-2-ad", "how_it_was_run": "as §1"}, "NCI-H2170": {"system": "NCI-H2170", "how_it_was_run": "as §1"}, "NCI-H1944": {"system": "NCI-H1944", "how_it_was_run": "as §1"}, "A-427": {"system": "A-427", "how_it_was_run": "as §1"}, "NCI-H358": {"system": "NCI-H358", "how_it_was_run": "as §1"}, "HCC-78": {"system": "HCC-78", "how_it_was_run": "as §1"}}, "data": [{"smiles": "COc1cc2nccc(Oc3ccc(NC(=O)Nc4cc(C)on4)c(Cl)c3)c2cc1OC", "note": "[Tivozanib] + Cc1nc(NC(=O)N2CCC[C@H]2C(N)=O)sc1-c1ccnc(C(C)(C)C(F)(F)F)c1 [Alpelisib] (partner 2 µM)", "values": [{"measurement": "relative viability", "setting": "HOP-62; first compound 0.005 µM", "value": 0.72}, {"measurement": "relative viability", "setting": "HOP-62; first compound 0.01581 µM", "value": 0.729}, {"measurement": "relative viability", "setting": "HOP-62; first compound 0.05 µM", "value": 1.06}, {"measurement": "relative viability", "setting": "HOP-62; first compound 0.1581 µM", "value": 0.483}, {"measurement": "relative viability", "setting": "HOP-62; first compound 0.5 µM", "value": 0.901}, {"measurement": "relative viability", "setting": "NCI-H1792; first compound 0.005 µM", "value": 0.728}, {"measurement": "relative viability", "setting": "NCI-H1792; first compound 0.01581 µM", "value": 0.778}, {"measurement": "relative viability", "setting": "NCI-H1792; first compound 0.05 µM", "value": 0.786}, {"measurement": "relative viability", "setting": "NCI-H1792; first compound 0.1581 µM", "value": 0.847}, {"measurement": "relative viability", "setting": "NCI-H1792; first compound 0.5 µM", "value": 0.812}, {"measurement": "relative viability", "setting": "NCI-H2009; first compound 0.005 µM", "value": 1.16}, {"measurement": "relative viability", "setting": "NCI-H2009; first compound 0.01581 µM", "value": 1.08}, {"measurement": "relative viability", "setting": "NCI-H2009; first compound 0.05 µM", "value": 1.29}, {"measurement": "relative viability", "setting": "NCI-H2009; first compound 0.1581 µM", "value": 1.22}, {"measurement": "relative viability", "setting": "NCI-H2009; first compound 0.5 µM", "value": 1.19}, {"measurement": "relative viability", "setting": "LU99A; first compound 0.005 µM", "value": 0.484}, {"measurement": "relative viability", "setting": "LU99A; first compound 0.01581 µM", "value": 0.555}, {"measurement": "relative viability", "setting": "LU99A; first compound 0.05 µM", "value": 0.521}, {"measurement": "relative viability", "setting": "LU99A; first compound 0.5 µM", "value": 0.469}, {"measurement": "relative viability", "setting": "NCI-H460; first compound 0.005 µM", "value": 0.483}, {"measurement": "relative viability", "setting": "NCI-H460; first compound 0.01581 µM", "value": 0.422}, {"measurement": "relative viability", "setting": "NCI-H460; first compound 0.05 µM", "value": 0.454}, {"measurement": "relative viability", "setting": "NCI-H460; first compound 0.1581 µM", "value": 0.609}, {"measurement": "relative viability", "setting": "NCI-H460; first compound 0.5 µM", "value": 0.543}, {"measurement": "relative viability", "setting": "LXF-289; first compound 0.005 µM", "value": 1.02}, {"measurement": "relative viability", "setting": "LXF-289; first compound 0.01581 µM", "value": 0.966}, {"measurement": "relative viability", "setting": "LXF-289; first compound 0.05 µM", "value": 1.06}, {"measurement": "relative viability", "setting": "LXF-289; first compound 0.1581 µM", "value": 1.09}, {"measurement": "relative viability", "setting": "LXF-289; first compound 0.5 µM", "value": 1.02}, {"measurement": "relative viability", "setting": "NCI-H1915; first compound 0.005 µM", "value": 1.08}, {"measurement": "relative viability", "setting": "NCI-H1915; first compound 0.01581 µM", "value": 1.04}, {"measurement": "relative viability", "setting": "NCI-H1915; first compound 0.05 µM", "value": 1.11}, {"measurement": "relative viability", "setting": "NCI-H1915; first compound 0.1581 µM", "value": 0.99}, {"measurement": "relative viability", "setting": "NCI-H1915; first compound 0.5 µM", "value": 0.961}, {"measurement": "relative viability", "setting": "SK-LU-1; first compound 0.005 µM", "value": 1.01}, {"measurement": "relative viability", "setting": "SK-LU-1; first compound 0.01581 µM", "value": 1.01}, {"measurement": "relative viability", "setting": "SK-LU-1; first compound 0.05 µM", "value": 1.12}, {"measurement": "relative viability", "setting": "SK-LU-1; first compound 0.1581 µM", "value": 0.645}, {"measurement": "relative viability", "setting": "SK-LU-1; first compound 0.5 µM", "value": 0.907}, {"measurement": "relative viability", "setting": "COR-L 105; first compound 0.01581 µM", "value": 1.2}, {"measurement": "relative viability", "setting": "COR-L 105; first compound 0.05 µM", "value": 0.933}, {"measurement": "relative viability", "setting": "COR-L 105; first compound 0.1581 µM", "value": 1.04}, {"measurement": "relative viability", "setting": "COR-L 105; first compound 0.5 µM", "value": 1.07}, {"measurement": "relative viability", "setting": "NCI-H2085; first compound 0.005 µM", "value": 1.02}, {"measurement": "relative viability", "setting": "NCI-H2085; first compound 0.01581 µM", "value": 0.978}, {"measurement": "relative viability", "setting": "NCI-H2085; first compound 0.05 µM", "value": 0.905}, {"measurement": "relative viability", "setting": "NCI-H2085; first compound 0.1581 µM", "value": 0.963}, {"measurement": "relative viability", "setting": "NCI-H2085; first compound 0.5 µM", "value": 0.642}, {"measurement": "relative viability", "setting": "HCC-366; first compound 0.005 µM", "value": 0.297}, {"measurement": "relative viability", "setting": "HCC-366; first compound 0.01581 µM", "value": 0.448}, {"measurement": "relative viability", "setting": "HCC-366; first compound 0.05 µM", "value": 0.381}, {"measurement": "relative viability", "setting": "HCC-366; first compound 0.1581 µM", "value": 0.51}, {"measurement": "relative viability", "setting": "HCC-366; first compound 0.5 µM", "value": 0.388}, {"measurement": "relative viability", "setting": "EPLC-272H; first compound 0.005 µM", "value": 0.964}, {"measurement": "relative viability", "setting": "EPLC-272H; first compound 0.01581 µM", "value": 0.918}, {"measurement": "relative viability", "setting": "EPLC-272H; first compound 0.05 µM", "value": 1.05}, {"measurement": "relative viability", "setting": "EPLC-272H; first compound 0.1581 µM", "value": 0.723}, {"measurement": "relative viability", "setting": "EPLC-272H; first compound 0.5 µM", "value": 0.862}, {"measurement": "relative viability", "setting": "NCI-H1793; first compound 0.005 µM", "value": 0.643}, {"measurement": "relative viability", "setting": "NCI-H1793; first compound 0.01581 µM", "value": 0.617}, {"measurement": "relative viability", "setting": "NCI-H1793; first compound 0.05 µM", "value": 0.729}, {"measurement": "relative viability", "setting": "NCI-H1793; first compound 0.5 µM", "value": 0.705}, {"measurement": "relative viability", "setting": "UMC-11; first compound 0.005 µM", "value": 1.11}, {"measurement": "relative viability", "setting": "UMC-11; first compound 0.01581 µM", "value": 0.846}, {"measurement": "relative viability", "setting": "UMC-11; first compound 0.05 µM", "value": 0.964}, {"measurement": "relative viability", "setting": "UMC-11; first compound 0.5 µM", "value": 0.959}, {"measurement": "relative viability", "setting": "NCI-H1666; first compound 0.005 µM", "value": 1}, {"measurement": "relative viability", "setting": "NCI-H1666; first compound 0.01581 µM", "value": 0.853}, {"measurement": "relative viability", "setting": "NCI-H1666; first compound 0.05 µM", "value": 1.06}, {"measurement": "relative viability", "setting": "NCI-H1666; first compound 0.1581 µM", "value": 0.965}, {"measurement": "relative viability", "setting": "NCI-H1666; first compound 0.5 µM", "value": 1.01}, {"measurement": "relative viability", "setting": "LC-2-ad; first compound 0.005 µM", "value": 0.902}, {"measurement": "relative viability", "setting": "LC-2-ad; first compound 0.01581 µM", "value": 0.809}, {"measurement": "relative viability", "setting": "LC-2-ad; first compound 0.05 µM", "value": 0.8}, {"measurement": "relative viability", "setting": "LC-2-ad; first compound 0.1581 µM", "value": 0.629}, {"measurement": "relative viability", "setting": "LC-2-ad; first compound 0.5 µM", "value": 0.654}, {"measurement": "relative viability", "setting": "NCI-H2170; first compound 0.005 µM", "value": 0.885}, {"measurement": "relative viability", "setting": "NCI-H2170; first compound 0.01581 µM", "value": 0.952}, {"measurement": "relative viability", "setting": "NCI-H2170; first compound 0.05 µM", "value": 0.799}, {"measurement": "relative viability", "setting": "NCI-H2170; first compound 0.5 µM", "value": 0.867}, {"measurement": "relative viability", "setting": "NCI-H1944; first compound 0.005 µM", "value": 0.889}, {"measurement": "relative viability", "setting": "NCI-H1944; first compound 0.01581 µM", "value": 0.902}, {"measurement": "relative viability", "setting": "NCI-H1944; first compound 0.05 µM", "value": 0.885}, {"measurement": "relative viability", "setting": "NCI-H1944; first compound 0.1581 µM", "value": 0.733}, {"measurement": "relative viability", "setting": "NCI-H1944; first compound 0.5 µM", "value": 0.912}, {"measurement": "relative viability", "setting": "A-427; first compound 0.005 µM", "value": 1.05}, {"measurement": "relative viability", "setting": "A-427; first compound 0.01581 µM", "value": 1.1}, {"measurement": "relative viability", "setting": "A-427; first compound 0.05 µM", "value": 1.12}, {"measurement": "relative viability", "setting": "A-427; first compound 0.1581 µM", "value": 0.925}, {"measurement": "relative viability", "setting": "A-427; first compound 0.5 µM", "value": 1.06}, {"measurement": "relative viability", "setting": "NCI-H358; first compound 0.005 µM", "value": 0.736}, {"measurement": "relative viability", "setting": "NCI-H358; first compound 0.01581 µM", "value": 0.803}, {"measurement": "relative viability", "setting": "NCI-H358; first compound 0.05 µM", "value": 0.771}, {"measurement": "relative viability", "setting": "NCI-H358; first compound 0.1581 µM", "value": 0.73}, {"measurement": "relative viability", "setting": "NCI-H358; first compound 0.5 µM", "value": 0.94}, {"measurement": "relative viability", "setting": "HCC-78; first compound 0.005 µM", "value": 0.327}, {"measurement": "relative viability", "setting": "HCC-78; first compound 0.01581 µM", "value": 0.347}, {"measurement": "relative viability", "setting": "HCC-78; first compound 0.05 µM", "value": 0.315}, {"measurement": "relative viability", "setting": "HCC-78; first compound 0.1581 µM", "value": 0.248}, {"measurement": "relative viability", "setting": "HCC-78; first compound 0.5 µM", "value": 0.316}]}]}
